From ChEMBL document CHEMBL1201862, “PubChem BioAssay data set” (2004) come the findings set out here.

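Assay format: 96-well plates, 48-hour exposure. GI50: concentration for 50% inhibition of growth.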 Activity calls are given as the source filed them. No stated cut-off is given here; in the data, active = GI50 up to about 1.1 µM and inactive = higher.

Among the test systems are A498; A549; CCRF-CEM; HCC 2998; HCT-116; HOP-92; HT-29; Hs-578T; KM12; LOX IMVI; M14; MOLT-4; NCI-H460; NCI-H522; OVCAR-3; SF-295; SR; U-251; UACC-257; UO-31.
Holding throughout (experiment): growth of human tumour cells (NCI), 48 h

As for `CCOC(=O)N(C)CCC1CC=CC(=O)C1c1cccc(OC)c1OC` (stereo not drawn), the GI50 was 33.3 µM (inactive) in the test on A498; 25.4 µM (inactive) with A549; 10.6 µM (inactive) with CCRF-CEM; 13.1 µM (inactive) in the test on HCC 2998; 14.4 µM (inactive) with HCT-116; 65.3 µM (inactive) in the test on HOP-92. Moreover, the GI50 is 13.8 µM (inactive) with HT-29; 71.4 µM (inactive) in the test on Hs-578T; 14.1 µM (inactive) with KM12; 38.7 µM (inactive) in the test on LOX IMVI; 19.5 µM (inactive) in the test on M14; 22.5 µM (inactive) in the test on MOLT-4. For the same molecule, the GI50 is 16.7 µM (inactive) in the test with NCI-H460; 13.6 µM (inactive) in the test on NCI-H522; 11.8 µM (inactive) in the test with OVCAR-3; 31 µM (inactive) with SF-295; 14.3 µM (inactive) with SR; 16.7 µM (inactive) in the test with U-251. The GI50 was 13.4 µM (inactive) in the test on UACC-257 and 16.6 µM (inactive) in the test with UO-31.
In the case of `CC12CN(CC[N+](C)(C)C)CC1(C)C1CCC2O1` (stereo not drawn), the GI50 in the test with A498, in the test on A549, in the test with CCRF-CEM, in the test on HCC 2998, with HCT-116 and with HOP-92 was > 100 µM (inactive) in each case. The GI50 in the test on HT-29, in the test on Hs-578T, in the test on KM12, in the test on LOX IMVI, in the test with M14 and in the test with MOLT-4 was > 100 µM (inactive) throughout. Also, the GI50 in the test with NCI-H460, in the test on NCI-H522, with OVCAR-3, with SF-295, with SR and with U-251 was > 100 µM (inactive) throughout. In addition, the GI50 in the test on UACC-257 and in the test with UO-31 was > 100 µM (inactive) in each case.
Turning to `C(=C\C(SCc1ccccc1)SCc1ccccc1)/c1ccccc1`, the GI50 with A498, in the test on A549, in the test with CCRF-CEM, in the test on HCC 2998, in the test on HCT-116 and in the test on HOP-92 was > 10 µM (inactive) in each case. For the same molecule, the GI50 with HT-29, with Hs-578T, in the test on KM12, in the test with LOX IMVI, in the test on M14 and with MOLT-4 was > 10 µM (inactive) each time. The GI50 in the test with NCI-H460, in the test with NCI-H522, with OVCAR-3, with SF-295, in the test with SR and in the test on U-251 was > 10 µM (inactive) throughout. Besides, the GI50 in the test on UACC-257 and in the test with UO-31 was > 10 µM (inactive) throughout.
Take `CC(=O)OCC1OC(NC(=S)Nn2c(=O)[nH]c3ccccc3c2=O)C(OC(C)=O)C(OC(C)=O)C1OC(C)=O` (stereo not drawn): the GI50 in the test with A498 is > 100 µM (inactive); in the test on A549 it was > 100 µM (inactive); with CCRF-CEM, 49.5 µM (inactive); in the test with HCC 2998, > 100 µM (inactive); in the test on HCT-116, > 100 µM (inactive); with HOP-92, > 100 µM (inactive). Further, the GI50 in the test with HT-29, with Hs-578T, in the test with KM12, in the test on LOX IMVI, in the test with M14 and in the test on MOLT-4 was > 100 µM (inactive) in each case. In addition, the GI50 was > 100 µM (inactive) with NCI-H460; > 100 µM (inactive) with NCI-H522; > 100 µM (inactive) with OVCAR-3; > 100 µM (inactive) with SF-295; 64.9 µM (inactive) in the test on SR; > 100 µM (inactive) in the test on U-251. For the same molecule, the GI50 with UACC-257 and with UO-31 was > 100 µM (inactive) each time.
As for `O=C(CC1(O)C(=O)Nc2c(Cl)cc(Cl)cc21)c1ccc(Br)cc1Br` (stereo not drawn), the GI50 with A498 was 22.1 µM (inactive); in the test with A549, 22.2 µM (inactive); in the test with CCRF-CEM, 0.474 µM (active); in the test on HCC 2998 it was 16.7 µM (inactive); with HCT-116 it was 4.31 µM (inactive); in the test with HOP-92, 2.4 µM (inactive). Moreover, the GI50 with HT-29 is 17.7 µM (inactive); in the test with Hs-578T it was 0.0646 µM (active); with KM12, 12.9 µM (inactive); in the test with LOX IMVI it was 5.19 µM (inactive); in the test on M14 it was 5.96 µM (inactive); with MOLT-4, 1.32 µM (inactive). Besides, the GI50 with NCI-H460 was 16 µM (inactive); in the test on NCI-H522, 2.89 µM (inactive); in the test with OVCAR-3, 18.7 µM (inactive); in the test with SF-295, 20 µM (inactive); in the test with SR, 1.56 µM (inactive); with U-251, 13.1 µM (inactive). The GI50 was 10.7 µM (inactive) in the test with UACC-257 and 16 µM (inactive) in the test with UO-31.
`N#Cc1c(C#N)c(-c2ccco2)n(/N=C/c2ccco2)c1N`: the GI50 is 27.6 µM (inactive) in the test with A498; 47.5 µM (inactive) with A549; > 100 µM (inactive) in the test on CCRF-CEM; > 100 µM (inactive) with HCC 2998; 52.8 µM (inactive) with HCT-116; 11.2 µM (inactive) in the test on HOP-92. For the same molecule, the GI50 with HT-29 is > 100 µM (inactive); in the test with Hs-578T it was 17.4 µM (inactive); with KM12, > 100 µM (inactive); in the test on LOX IMVI it was 83.4 µM (inactive); with M14 it was > 100 µM (inactive); in the test with MOLT-4 it was 94.6 µM (inactive). Moreover, the GI50 in the test with NCI-H460 was > 100 µM (inactive); in the test on NCI-H522, > 100 µM (inactive); in the test on OVCAR-3, > 100 µM (inactive); in the test with SF-295, 21.9 µM (inactive); in the test with SR it was 26.1 µM (inactive); in the test with U-251, 24.6 µM (inactive). Also, the GI50 with UACC-257 and in the test on UO-31 was > 100 µM (inactive) in each case.
For the molecule `COc1cc(OC2OC(CO)C(O)C(O)C2O)c2c(c1)O[C@@H]1[C@H](O)Oc3cc(OC)c(OC)cc3[C@]1(O)C2=O` (stereo partly drawn), the GI50 with A498, with A549, with CCRF-CEM, in the test with HCC 2998, with HCT-116 and with HOP-92 was > 25 µM (inactive) in each case. The GI50 in the test with HT-29, with Hs-578T, in the test with KM12, in the test on LOX IMVI, with M14 and in the test with MOLT-4 was > 25 µM (inactive) each time. Further, the GI50 in the test on NCI-H460, in the test on NCI-H522, in the test on OVCAR-3, in the test on SF-295, in the test on SR and in the test with U-251 was > 25 µM (inactive) in each case. Moreover, the GI50 in the test on UACC-257 and with UO-31 was > 25 µM (inactive) in each case.
As for `C/C(=N/NC(=S)Nc1ccccc1Cl)c1ccccn1`, the GI50 in the test on A498 was 1.46 µM (inactive); in the test on A549 it was 0.0582 µM (active); with CCRF-CEM, < 0.01 µM (active); with HCC 2998, 2.98 µM (inactive); with HCT-116 it was < 0.0129 µM (active); in the test on HOP-92, 1.03 µM (active). Moreover, the GI50 in the test with HT-29 is < 0.01 µM (active); in the test with Hs-578T, 8.53 µM (inactive); in the test on KM12, 0.0705 µM (active); in the test with LOX IMVI it was 0.01 µM (active); in the test on M14, < 0.0211 µM (active); in the test on MOLT-4 it was < 0.0109 µM (active). In addition, the GI50 was 0.0382 µM (active) in the test with NCI-H460; 1.11 µM (active) in the test on NCI-H522; 0.0136 µM (active) with OVCAR-3; 0.0986 µM (active) in the test on SF-295; < 0.0139 µM (active) with SR; 0.0418 µM (active) with U-251. The GI50 is < 0.0151 µM (active) in the test with UACC-257 and 0.583 µM (active) in the test with UO-31.
Consider `O=C(O[C@H]1CCN2C[C@H]3C[C@H](CN4C(=O)CCC[C@H]34)[C@@H]2C1)c1ccc(O)cc1`, for which the GI50 in the test on A498, with A549, with CCRF-CEM, with HCC 2998, in the test with HCT-116 and with HOP-92 was > 100 µM (inactive) in each case. Besides, the GI50 with HT-29, in the test with Hs-578T, in the test on KM12, in the test with LOX IMVI, with M14 and with NCI-H460 was > 100 µM (inactive) throughout. The GI50 with NCI-H522, with OVCAR-3, in the test on SF-295, in the test on SR, in the test with U-251 and with UACC-257 was > 100 µM (inactive) throughout. Further, the GI50 in the test with UO-31 is > 100 µM (inactive).
`CCCCCCCCCCCCC(O)[C@H]1CC[C@H](C(O)CCCCCC(=O)CCCCC2CC(C(C)=O)C(=O)O2)O1` (stereo partly drawn): the GI50 is 13.3 µM (inactive) in the test on A498; 3.7 µM (inactive) with A549; 3.17 µM (inactive) in the test on CCRF-CEM; 16.2 µM (inactive) in the test on HCC 2998; 1.02 µM (active) with HCT-116; 10.4 µM (inactive) in the test on HOP-92. The GI50 was 6.73 µM (inactive) in the test with HT-29; 15.4 µM (inactive) in the test with Hs-578T; 8.77 µM (inactive) with KM12; 2.08 µM (inactive) in the test on LOX IMVI; 8.77 µM (inactive) in the test with M14; 3.03 µM (inactive) in the test with NCI-H460. The GI50 in the test on NCI-H522 was 3.94 µM (inactive); with OVCAR-3, 4.25 µM (inactive); in the test on SF-295, 4.95 µM (inactive); in the test with SR, 0.0264 µM (active); in the test with U-251, 8.87 µM (inactive); with UACC-257, 1.16 µM (inactive). Also, the GI50 with UO-31 was 8.97 µM (inactive).
